Reference: US7601373B2, “Equine feed product” (priority 2002, dated 2009)

Assays:
horses [1] = assay: Example One: amino acid feeding trial with varied lysine; PCV, haemoglobin, coat colour, racecourse performance; format: in vivo, horse; conditions: 15 g/day lysine with 5 g/day methionine and 5 g/day threonine
Experimental: Lysine, methionine and threonine are essential amino acids. Trials were conducted on eleven horses (eight geldings and three fillies) where the horses were randomly split into three groups. Two groups contained four horses and the third group contained three horses. The horses varied in age between three and eight years old with an average body weight of 500 kg. The Packed Cell Volumes (PCVs) and haemoglobin levels of each horse were tested. Visual observations such as coat colour and racecourse performances were also monitored. In these Example all three amino acids were administered to the horses together as all three amino acids are essential. The quantities of methionine and threonine were constant for each group whilst the quantity of lysine was varied between the groups. Oats are deficient in lysine therefore it is necessary to boost the horses intake of lysine while maintaining a constant level of methionine and threonine
Quantities of Amino Acid Administered to Horses Daily

[2] = tested on: foals, yearlings and adult horses; assay: Example Five: calcium feeding trials at various stages of development; format: in vivo, horse
Experimental: A number of trials were conducted on horses throughout various stages of development fed with varying levels of calcium. The first two trials were conducted on twelve foals over a nine month period. The trial began when the foals were aged three months. […] Each foal was fed 2.5 g of Calcium a day within a balanced diet for a period of three months. The Calcium dosage was then increased to 5.0 g a day for a further period of six months as the foals average weight had increased to 240 kg.
The third trial comprised a group of ten yearlings with average weight 425 kg body. The yearlings were fed 7.5 g of Calcium a day over a period of ten weeks. The fourth trial was conducted on adult horses with average body weight of 500 kg aged 18+ months. Each adult horse was fed 10.0 g of Calcium per day.

horses [3] = assay: Example Four: magnesium supplementation, Stress Tetany and performance; format: in vivo, horse
Source text: Magnesium is considered to be an essential daily mineral in equine diets. A deficiency of magnesium in the diet in conjunction with any condition that will produce stress can lead to Stress Tetany. An example of a stress-causing condition is transportation of the horse over long distances. […] Some weeks later the same horse was transported to another location. The journey lasted approximately four hours.
Trials conducted where the quantity of magnesium introduced into the horse was varied from 2 g/day of magnesium oxide to 4 g/day of magnesium oxide.

thoroughbred yearlings = assay: Example Three: inorganic versus chelated copper with chelated zinc in feed supplement; format: in vivo, horse; conditions: 100 mg/day copper and 300 mg/day chelated zinc in 100 g/day supplement, ten weeks, grass high in molybdenum
Experimental: A trial was conducted on ten thoroughbred yearlings (six colts and four fillies) using optimum levels of copper and zinc. The horses were divided into two groups with five horses in each group. The trials were conducted over a period of ten weeks. During this period the horses were stabled, each horse was handwalked for one hour a day and put to grass for three hours a day.
The copper used in the feed supplement for the first group of five horses was inorganic copper, copper sulfate whilst the copper used in the oat-balancing feed supplement for the second group was chelated copper. The horses has an average body weight of 425 kg. The horses were fed a combined diet of Ryegrass Hay, Rolled Irish Oats, Cooked Flaxseed and the feed supplement.
In trial one, 100 g of the oat balancing feed supplement was fed to each horse daily. There was 100 mg of inorganic copper in present in the oat balancing feed supplement.
Group 1: 100 mg/day Inorganic Copper & 300 mg/day Chelated Zinc
In the second group the five horses were fed the same combined diet however the copper present in the feed supplement was chelated copper. Again there was 100 mg of copper present in 100 g of the oat balancing feed supplement.
Group 2: 100 mg/day Chelated Copper & 300 mg/day Chelated Zinc

[4] = tested on: poor performing racehorses; conditions: six anaemic racehorses, within a matter of weeks; cited from earlier work

For `NCCCC[C@H](N)C(=O)O` [lysine], the “coat colour and racecourse performance” value (horses [1]) was “optimum coat colour and racecourse performance”, the PCV levels (horses [1]; average of horses, 500 kg) was greater than 42 per cent per liter and the haemoglobin levels (horses [1]; average of horses, 500 kg) was greater than 14 g per deciliter.

For `[Ca+2]` [Calcium], the “bone development, limb formation and weight gain” value ([2]; 2.5 to 10.0 g/day Calcium according to age) was “clinically adequate bone development, correct limb formation and normal weight gain”, the “Average weight at 6 months” value ([2]; Foals 3-6 months, 2.5 g/day Calcium, 118 Kg at 3 months) was 240 Kg at 6 months and the “Average weight at 12 months” value ([2]; Foals 6-12 months, 5.0 g/day Calcium, 240 Kg at 6 months) was 375 Kg at 12 months. For the same compound, the “Average weight at 18 months” value ([2]; Yearlings 12-18 months, 7.5 g/day Calcium, 375 Kg at 12 months) was 475 Kg at 18 months.

For `[O]=[Mg]` [magnesium oxide], the performance (horses [3]; 4 g/day of magnesium oxide (varied from 2 g/day to 4 g/day)) was “optimum performance” and the “temperament, weight and coat colour” value (horses [3]; magnesium oxide 4 g/day) was “improvement in the temperament of the horse was observed in conjunction with weight gain and better coat colour”.

In the case of `O=S(=O)([O-])[O-].[Cu+2]` [Inorganic Copper, copper sulfate], the coat colour (thoroughbred yearlings) is reported as “poor coat colour”, the red cell production (thoroughbred yearlings) is reported as “decreased red cell production” and the thrive (thoroughbred yearlings) is reported as “lack of thrive”.

For `N[C@@H](Cc1cc(I)c(Oc2cc(I)c(O)c(I)c2)c(I)c1)C(=O)O` [Thyroxine], the red cell parameters [4] is listed as “all elevated”.
